Measured values reported in publication PMC3437627 (Bioorganic & medicinal chemistry letters, 2008).

Key:
[1] = in vivo; cited from earlier work
[2] = target: α4β2* nAChRs (Rattus norvegicus, UniProt P09483+P12390); conditions: rat brain membranes; cited from earlier work
[3] = target: T1, α7* nAChRs (Rattus norvegicus, UniProt Q05941); conditions: rat brain membranes; cited from earlier work
[4] = test system: nicotine self-administration; conditions: rats; cited from earlier work
[5] = target: T1, α7* nAChRs; test: [3H]methyllycaconitine; assay type: binding; conditions: 100 nM

T1 sequence (Q05941 23-502): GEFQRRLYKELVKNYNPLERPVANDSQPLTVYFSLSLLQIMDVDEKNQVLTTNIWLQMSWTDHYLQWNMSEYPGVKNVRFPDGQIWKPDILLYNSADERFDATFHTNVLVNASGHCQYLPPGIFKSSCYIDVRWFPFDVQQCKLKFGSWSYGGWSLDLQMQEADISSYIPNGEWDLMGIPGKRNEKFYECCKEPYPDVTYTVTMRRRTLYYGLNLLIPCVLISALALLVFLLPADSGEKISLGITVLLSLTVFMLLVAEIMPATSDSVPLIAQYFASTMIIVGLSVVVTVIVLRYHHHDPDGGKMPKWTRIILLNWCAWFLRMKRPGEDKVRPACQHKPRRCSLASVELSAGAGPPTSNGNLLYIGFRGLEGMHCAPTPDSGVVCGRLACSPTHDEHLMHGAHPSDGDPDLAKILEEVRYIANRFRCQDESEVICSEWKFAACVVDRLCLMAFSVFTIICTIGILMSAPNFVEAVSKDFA
Chain of α4β2* nAChRs (P09483 31-630): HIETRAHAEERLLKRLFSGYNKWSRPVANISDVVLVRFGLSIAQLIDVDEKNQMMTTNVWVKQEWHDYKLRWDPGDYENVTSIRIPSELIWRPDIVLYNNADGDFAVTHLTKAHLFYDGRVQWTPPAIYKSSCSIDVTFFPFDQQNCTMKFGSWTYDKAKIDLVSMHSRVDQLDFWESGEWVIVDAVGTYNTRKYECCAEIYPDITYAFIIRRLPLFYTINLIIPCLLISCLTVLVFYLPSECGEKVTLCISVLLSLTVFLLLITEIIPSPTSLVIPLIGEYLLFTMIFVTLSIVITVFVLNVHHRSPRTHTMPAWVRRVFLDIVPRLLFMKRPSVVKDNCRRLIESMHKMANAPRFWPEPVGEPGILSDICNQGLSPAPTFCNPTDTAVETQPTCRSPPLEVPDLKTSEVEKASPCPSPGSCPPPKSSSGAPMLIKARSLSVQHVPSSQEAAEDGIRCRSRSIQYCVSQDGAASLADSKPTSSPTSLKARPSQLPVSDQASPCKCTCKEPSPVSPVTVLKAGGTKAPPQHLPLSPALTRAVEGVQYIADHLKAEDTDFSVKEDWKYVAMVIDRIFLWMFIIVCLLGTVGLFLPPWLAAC
Chain of α4β2* nAChRs (P12390 25-500): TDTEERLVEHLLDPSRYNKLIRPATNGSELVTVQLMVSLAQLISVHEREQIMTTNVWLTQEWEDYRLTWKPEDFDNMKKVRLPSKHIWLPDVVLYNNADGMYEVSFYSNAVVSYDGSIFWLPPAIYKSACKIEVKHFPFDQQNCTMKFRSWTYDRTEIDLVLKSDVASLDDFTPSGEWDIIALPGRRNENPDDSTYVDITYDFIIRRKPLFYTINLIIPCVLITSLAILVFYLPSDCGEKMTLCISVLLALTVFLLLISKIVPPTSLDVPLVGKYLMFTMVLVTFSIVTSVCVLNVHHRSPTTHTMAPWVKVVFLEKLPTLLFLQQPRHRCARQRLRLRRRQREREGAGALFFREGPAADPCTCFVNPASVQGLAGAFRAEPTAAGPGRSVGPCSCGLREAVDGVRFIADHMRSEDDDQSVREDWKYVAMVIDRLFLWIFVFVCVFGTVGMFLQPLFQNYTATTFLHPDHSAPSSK

| Structure (SMILES) | brain bioavailability [1] | affinity for α4β2* nAChR binding site [2] | affinity for α7* nAChR binding site [3] | effect on nicotine self-administration [4] | inhibition in the MLA assay [5] |
| --- | --- | --- | --- | --- | --- |
| Cc1ccc[n+](CCCCCCCCCCCC[n+]2cccc(C)c2)c1.[Br-].[Br-] [Compound 2, N,N’-dodecane-1,12-diyl-bis-3-picolinium dibromide] | brain bio-available | no affinity | no affinity | decrease nicotine self-administration |  |
| C(#Cc1cc(C#CCCC[n+]2cccc(Cc3ccccc3)c2)c(C#CCCC[n+]2cccc(Cc3ccccc3)c2)cc1C#CCCC[n+]1cccc(Cc2ccccc2)c1)CCC[n+]1cccc(Cc2ccccc2)c1.[Br-].[Br-].[Br-].[Br-] [Compound 8f] |  |  |  |  | significant inhibition |
| C(#Cc1cc(C#CCCC[n+]2cccc(-c3ccccc3)c2)c(C#CCCC[n+]2cccc(-c3ccccc3)c2)cc1C#CCCC[n+]1cccc(-c2ccccc2)c1)CCC[n+]1cccc(-c2ccccc2)c1.[Br-].[Br-].[Br-].[Br-] [Compound 8i] |  |  |  |  | significant inhibition |
